Measurements: ChEMBL document CHEMBL1671651, “Azithromycin in Pseudomonas aeruginosa biofilms: bactericidal activity and selection of nfxB mutants” (2009)
In brackets after ≈: the same amount, converted by molar mass.

How the values were obtained:
Assay type in all cases: functional
Pseudomonas aeruginosa [1] = assay: Antimicrobial activity against mutS::lox,mexD::lox-deficient Pseudomonas aeruginosa PAOMSMxD biofilm by Etest method
Pseudomonas aeruginosa [2] = assay: Antimicrobial activity against mutS::lox-deficient Pseudomonas aeruginosa PAOMSA biofilm harboring nfxB T86C mutant gene selected at 4 ug/ml of azithromycin after 4 passages by Etest method
Pseudomonas aeruginosa [3] = assay: Antimicrobial activity against Pseudomonas aeruginosa PAO1 A biofilm harboring duplication mutation at nucleotide 333 in nfxB gene selected at 0.5 ug/ml of azithromycin by Etest method
Pseudomonas aeruginosa [4] = assay: Antimicrobial activity against Pseudomonas aeruginosa PAO1 A biofilm harboring deletion mutation at nucleotide 231-244 in nfxB gene selected at 1 ug/ml of azithromycin after 4 passages by Etest method
Pseudomonas aeruginosa [5] = assay: Antimicrobial activity against mucA::lox, mutS::lox-deficient Pseudomonas aeruginosa PAOMSAA biofilm harboring nfxB C89T mutant gene selected at 0.5 ug/ml of azithromycin after 3 passages by Etest method
Pseudomonas aeruginosa [6] = assay: Antimicrobial activity against nfxB gene-deficient Pseudomonas aeruginosa PAONB biofilm by Etest method
Pseudomonas aeruginosa [7] = assay: Antimicrobial activity against mutS::lox-deficient Pseudomonas aeruginosa PAOMSA biofilm harboring nfxB G539A mutant gene selected at 4 ug/ml of azithromycin after 6 passages by Etest method
Pseudomonas aeruginosa [8] = assay: Antimicrobial activity against mucA::lox, mutS::lox-deficient Pseudomonas aeruginosa PAOMSAA biofilm harboring nfxB T86C mutant gene selected at 4 ug/ml of azithromycin after 2 passages by Etest method
Pseudomonas aeruginosa [9] = assay: Antimicrobial activity against mucA::lox, mutS::lox-deficient Pseudomonas aeruginosa PAOMSAB biofilm harboring nfxB T86C mutant gene selected at 4 ug/ml of azithromycin after 2 passages by Etest method
Pseudomonas aeruginosa [10] = assay: Antimicrobial activity against mutS::lox-deficient Pseudomonas aeruginosa PAOMSB biofilm harboring nfxB T562C mutant gene selected at 4 ug/ml of azithromycin after 4 passages by Etest method
Pseudomonas aeruginosa [11] = assay: Antimicrobial activity against mutS::lox-deficient Pseudomonas aeruginosa PAOMSB biofilm harboring nfxB T380C mutant gene selected at 0.5 ug/ml of azithromycin after 2 passages by Etest method
Pseudomonas aeruginosa [12] = assay: Antimicrobial activity against mucA::lox, mutS::lox-deficient Pseudomonas aeruginosa PAOMSAA biofilm harboring nfxB C89T mutant gene selected at 4 ug/ml of azithromycin after 6 passages by Etest method
Pseudomonas aeruginosa [13] = assay: Antimicrobial activity against mucA::lox, mutS::lox-deficient Pseudomonas aeruginosa PAOMSAB biofilm harboring nfxB C25T mutant gene selected at 1 ug/ml of azithromycin after 2 passages by Etest method
Pseudomonas aeruginosa [14] = assay: Antimicrobial activity against mucA::lox, mutS::lox-deficient Pseudomonas aeruginosa PAOMSAA biofilm harboring nfxB T77C mutant gene selected at 4 ug/ml of azithromycin after 3 passages by Etest method
Pseudomonas aeruginosa [15] = assay: Antimicrobial activity against mutS::lox-deficient Pseudomonas aeruginosa PAOMSB biofilm harboring nfxB C116T mutant gene selected at 4 ug/ml of azithromycin after 5 passages by Etest method
Pseudomonas aeruginosa [16] = assay: Antimicrobial activity against mucA::lox-deficient Pseudomonas aeruginosa PAOMAB biofilm harboring nfxB G125T mutant gene selected at 0.5 ug/ml of azithromycin after 1 passages by Etest method
Pseudomonas aeruginosa [17] = assay: Antimicrobial activity against mutS::lox-deficient Pseudomonas aeruginosa PAOMSA biofilm harboring nfxB C116T mutant gene selected at 1 ug/ml of azithromycin after 1 passages by Etest method
Pseudomonas aeruginosa [18] = assay: Antimicrobial activity against mutS::lox,nfxB gene-deficient Pseudomonas aeruginosa PAOMSNB biofilm by Etest method
Pseudomonas aeruginosa [19] = assay: Antimicrobial activity against mutS::lox-deficient Pseudomonas aeruginosa PAOMSB biofilm harboring nfxB T77C mutant gene selected at 4 ug/ml of azithromycin after 6 passages by Etest method
Pseudomonas aeruginosa [20] = assay: Antimicrobial activity against Pseudomonas aeruginosa PAO1 biofilm by Etest method
Pseudomonas aeruginosa [21] = assay: Antimicrobial activity against mutS::lox-deficient Pseudomonas aeruginosa PAOMSA biofilm harboring nfxB G461A mutant gene selected at 4 ug/ml of azithromycin after 5 passages by Etest method
Pseudomonas aeruginosa [22] = assay: Antimicrobial activity against mucA::lox-deficient Pseudomonas aeruginosa PAOMA biofilm by Etest method
Pseudomonas aeruginosa [23] = assay: Antimicrobial activity against mutS::lox-deficient Pseudomonas aeruginosa PAOMS biofilm by Etest method
Pseudomonas aeruginosa [24] = assay: Antimicrobial activity against mutS::lox-deficient Pseudomonas aeruginosa PAOMSB biofilm harboring nfxB T41C mutant gene selected at 4 ug/ml of azithromycin after 3 passages by Etest method
Pseudomonas aeruginosa [25] = assay: Antimicrobial activity against mutS::lox-deficient Pseudomonas aeruginosa PAOMSA biofilm harboring nfxB T533C mutant gene selected at 4 ug/ml of azithromycin after 2 passages by Etest method
Pseudomonas aeruginosa [26] = assay: Antimicrobial activity against mucA::lox-deficient Pseudomonas aeruginosa PAOMAA biofilm harboring nfxB C25T mutant gene selected at 1 ug/ml of azithromycin after 2 passages by Etest method
Pseudomonas aeruginosa [27] = assay: Antimicrobial activity against mucA::lox, mutS::lox-deficient Pseudomonas aeruginosa PAOMSA biofilm by Etest method
Pseudomonas aeruginosa [28] = assay: Antimicrobial activity against Pseudomonas aeruginosa PAO1 A biofilm harboring nfxB T248C mutant gene selected at 4 ug/ml of azithromycin after 4 passages by Etest method
Pseudomonas aeruginosa [29] = assay: Antimicrobial activity against mucA::lox, mutS::lox-deficient Pseudomonas aeruginosa PAOMSAB biofilm harboring nfxB T544C mutant gene selected at 4 ug/ml of azithromycin after 1 passages by Etest method
Pseudomonas aeruginosa [30] = assay: Antimicrobial activity against mucA::lox, mutS::lox-deficient Pseudomonas aeruginosa PAOMSAB biofilm harboring nfxB C89T mutant gene selected at 4 ug/ml of azithromycin after 6 passages by Etest method
Pseudomonas aeruginosa [31] = assay: Antimicrobial activity against mexD::lox-deficient Pseudomonas aeruginosa PAOMxD biofilm by Etest method
Pseudomonas aeruginosa [32] = assay: Antimicrobial activity against mutS::lox-deficient Pseudomonas aeruginosa PAOMSA biofilm harboring nfxB T86C mutant gene selected at 4 ug/ml of azithromycin after 3 passages by Etest method
Pseudomonas aeruginosa [33] = assay: Antimicrobial activity against mutS::lox-deficient Pseudomonas aeruginosa PAOMSB biofilm harboring deletion od C534 in nfxB mutant gene selected at 4 ug/ml of azithromycin after 2 passages by Etest method

Row | Compound | MIC (Pseudomonas aeruginosa [1]) [µg/mL] | MIC (Pseudomonas aeruginosa [2]) [µg/mL] | MIC (Pseudomonas aeruginosa [3]) [µg/mL] | MIC (Pseudomonas aeruginosa [4]) [µg/mL] | MIC (Pseudomonas aeruginosa [5]) [µg/mL] | MIC (Pseudomonas aeruginosa [6]) [µg/mL] | MIC (Pseudomonas aeruginosa [7]) [µg/mL] | MIC (Pseudomonas aeruginosa [8]) [µg/mL] | MIC (Pseudomonas aeruginosa [9]) [µg/mL] | MIC (Pseudomonas aeruginosa [10]) [µg/mL] | MIC (Pseudomonas aeruginosa [11]) [µg/mL] | MIC (Pseudomonas aeruginosa [12]) [µg/mL] | MIC (Pseudomonas aeruginosa [13]) [µg/mL] | MIC (Pseudomonas aeruginosa [14]) [µg/mL] | MIC (Pseudomonas aeruginosa [15]) [µg/mL] | MIC (Pseudomonas aeruginosa [16]) [µg/mL] | MIC (Pseudomonas aeruginosa [17]) [µg/mL] | MIC (Pseudomonas aeruginosa [18]) [µg/mL] | MIC (Pseudomonas aeruginosa [19]) [µg/mL] | MIC (Pseudomonas aeruginosa [20]) [µg/mL] | also measured
1 | O=C(O)c1cn(C2CC2)c2cc(N3CCNCC3)c(F)cc2c1=O [CIPROFLOXACIN] | 0.094 (≈ 0.284 µM) | 1 | 3 | 3 | 3 | 1 (≈ 3.02 µM) | 1 | 3 | 3 | 0.75 | 4 | 3 | 3 | 3 | 1.5 | 3 | 4 | 1 (≈ 3.02 µM) |  |  | 
2 | NC[C@H]1O[C@H](O[C@H]2[C@H](O)[C@@H](O[C@H]3O[C@H](CO)[C@@H](O)[C@H](N)[C@H]3O)[C@H](N)C[C@@H]2N)[C@H](N)C[C@@H]1O [TOBRAMYCIN] | 2 (≈ 4.28 µM) | 0.5 | 0.19 | 0.38 | 0.75 | 0.25 (≈ 0.535 µM) | 1 | 0.5 | 0.5 | 1.5 | 1 | 0.5 | 0.38 | 1.5 | 0.5 | 0.38 | 1 | 0.5 (≈ 1.07 µM) | 1 | 1.5 (≈ 3.21 µM) | MIC (Pseudomonas aeruginosa [21]): 1.5 µg/mL; MIC (Pseudomonas aeruginosa [22]): 1.5 µg/mL (≈ 3.21 µM); MIC (Pseudomonas aeruginosa [23]): 1.5 µg/mL (≈ 3.21 µM); MIC (Pseudomonas aeruginosa [24]): 1 µg/mL; MIC (Pseudomonas aeruginosa [25]): 0.75 µg/mL; MIC (Pseudomonas aeruginosa [26]): 0.38 µg/mL; MIC (Pseudomonas aeruginosa [27]): 1.5 µg/mL (≈ 3.21 µM); MIC (Pseudomonas aeruginosa [28]): 0.25 µg/mL; MIC (Pseudomonas aeruginosa [29]): 1 µg/mL; MIC (Pseudomonas aeruginosa [30]): 1 µg/mL; MIC (Pseudomonas aeruginosa [31]): 1.5 µg/mL (≈ 3.21 µM); MIC (Pseudomonas aeruginosa [32]): 0.5 µg/mL; MIC (Pseudomonas aeruginosa [33]): 1 µg/mL
3 | CC(C)(O/N=C(\C(=O)N[C@@H]1C(=O)N2C(C(=O)[O-])=C(C[n+]3ccccc3)CS[C@H]12)c1csc(N)n1)C(=O)O [CEFTAZIDIME] | 1.5 (≈ 2.74 µM) | 1.5 | 1.5 | 1 | 1.5 | 1.5 (≈ 2.74 µM) | 1.5 | 1.5 | 2 | 1.5 | 1 | 1.5 | 1 | 2 | 1.5 | 0.5 | 1 | 1.5 (≈ 2.74 µM) | 2 | 1.5 (≈ 2.74 µM) | MIC (Pseudomonas aeruginosa [21]): 2 µg/mL; MIC (Pseudomonas aeruginosa [22]): 1.5 µg/mL (≈ 2.74 µM); MIC (Pseudomonas aeruginosa [23]): 1.5 µg/mL (≈ 2.74 µM); MIC (Pseudomonas aeruginosa [24]): 2 µg/mL; MIC (Pseudomonas aeruginosa [25]): 1.5 µg/mL; MIC (Pseudomonas aeruginosa [26]): 1 µg/mL; MIC (Pseudomonas aeruginosa [27]): 1.5 µg/mL (≈ 2.74 µM); MIC (Pseudomonas aeruginosa [28]): 1.5 µg/mL; MIC (Pseudomonas aeruginosa [29]): 2 µg/mL; MIC (Pseudomonas aeruginosa [30]): 1.5 µg/mL; MIC (Pseudomonas aeruginosa [31]): 1.5 µg/mL (≈ 2.74 µM); MIC (Pseudomonas aeruginosa [32]): 2 µg/mL; MIC (Pseudomonas aeruginosa [33]): 2 µg/mL
4 | COLISTIN | 2 | 3 | 1.5 | 2 | 1 | 1.5 | 1.5 | 3 | 2 | 3 | 2 | 2 | 2 | 2 | 1.5 | 1 | 2 | 1.5 | 0.5 | 2 | MIC (Pseudomonas aeruginosa [21]): 2 µg/mL; MIC (Pseudomonas aeruginosa [22]): 2 µg/mL; MIC (Pseudomonas aeruginosa [23]): 2 µg/mL; MIC (Pseudomonas aeruginosa [24]): 2 µg/mL; MIC (Pseudomonas aeruginosa [25]): 2 µg/mL; MIC (Pseudomonas aeruginosa [26]): 1 µg/mL; MIC (Pseudomonas aeruginosa [27]): 2 µg/mL; MIC (Pseudomonas aeruginosa [28]): 1.5 µg/mL; MIC (Pseudomonas aeruginosa [29]): 3 µg/mL; MIC (Pseudomonas aeruginosa [30]): 1 µg/mL; MIC (Pseudomonas aeruginosa [31]): 2 µg/mL; MIC (Pseudomonas aeruginosa [32]): 2 µg/mL; MIC (Pseudomonas aeruginosa [33]): 2 µg/mL
